{
  "source": "ChEMBL document CHEMBL5465560",
  "about": "“Selectivity Literature for EUbOPEN Chemogenomic Library” (2024)",
  "key": {"[1]": {"target": "T1, Serine/threonine-protein kinase BRSK1 (Homo sapiens) (UniProt Q8TDC3)", "T1 sequence (whole entry)": "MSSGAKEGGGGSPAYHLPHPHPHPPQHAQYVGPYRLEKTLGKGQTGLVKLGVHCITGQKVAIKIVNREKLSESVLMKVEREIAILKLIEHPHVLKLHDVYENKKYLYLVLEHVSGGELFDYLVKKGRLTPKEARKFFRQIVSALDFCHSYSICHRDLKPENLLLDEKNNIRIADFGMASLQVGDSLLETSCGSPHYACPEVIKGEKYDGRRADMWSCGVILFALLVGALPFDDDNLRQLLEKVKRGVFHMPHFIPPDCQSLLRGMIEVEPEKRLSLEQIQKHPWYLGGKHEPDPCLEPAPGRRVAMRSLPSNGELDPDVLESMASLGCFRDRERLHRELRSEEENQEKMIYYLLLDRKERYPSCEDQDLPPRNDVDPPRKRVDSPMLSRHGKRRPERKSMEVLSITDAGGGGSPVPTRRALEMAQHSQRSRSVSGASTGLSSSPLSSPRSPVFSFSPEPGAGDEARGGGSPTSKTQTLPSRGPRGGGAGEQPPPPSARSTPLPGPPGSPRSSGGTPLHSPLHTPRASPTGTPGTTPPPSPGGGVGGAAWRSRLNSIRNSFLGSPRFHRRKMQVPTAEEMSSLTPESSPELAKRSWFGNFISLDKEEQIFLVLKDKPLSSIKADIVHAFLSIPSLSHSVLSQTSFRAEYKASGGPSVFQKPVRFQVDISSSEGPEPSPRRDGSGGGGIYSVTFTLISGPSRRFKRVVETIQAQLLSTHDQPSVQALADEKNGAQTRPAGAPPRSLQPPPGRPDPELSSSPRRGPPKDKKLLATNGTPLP", "test": "Selectivity interaction (Kinase screening (Nanosyn)) EUB0000604a BRSK1"}, "[2]": {"target": "T2, Serine/threonine-protein kinase STK11 (Homo sapiens) (UniProt Q15831)", "T2 sequence (whole entry)": "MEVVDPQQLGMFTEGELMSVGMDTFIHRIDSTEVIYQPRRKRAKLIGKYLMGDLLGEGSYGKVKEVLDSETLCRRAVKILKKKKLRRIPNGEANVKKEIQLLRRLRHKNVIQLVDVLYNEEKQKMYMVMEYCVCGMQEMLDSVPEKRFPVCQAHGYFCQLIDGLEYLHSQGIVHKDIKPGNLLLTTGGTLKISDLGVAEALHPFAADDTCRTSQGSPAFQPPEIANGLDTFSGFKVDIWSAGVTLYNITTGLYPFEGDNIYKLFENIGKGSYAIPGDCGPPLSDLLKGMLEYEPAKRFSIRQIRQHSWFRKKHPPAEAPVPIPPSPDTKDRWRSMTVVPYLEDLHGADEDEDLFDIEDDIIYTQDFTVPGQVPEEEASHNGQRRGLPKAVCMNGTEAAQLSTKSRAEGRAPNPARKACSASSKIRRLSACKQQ", "test": "Selectivity interaction (KinomeScan (DiscoverX)) EUB0001049a STK11", "details": "at 1 µM"}, "[3]": {"target": "Cyclin-dependent kinase 14 (Homo sapiens) (UniProt O94921)", "sequence (O94921 whole entry)": "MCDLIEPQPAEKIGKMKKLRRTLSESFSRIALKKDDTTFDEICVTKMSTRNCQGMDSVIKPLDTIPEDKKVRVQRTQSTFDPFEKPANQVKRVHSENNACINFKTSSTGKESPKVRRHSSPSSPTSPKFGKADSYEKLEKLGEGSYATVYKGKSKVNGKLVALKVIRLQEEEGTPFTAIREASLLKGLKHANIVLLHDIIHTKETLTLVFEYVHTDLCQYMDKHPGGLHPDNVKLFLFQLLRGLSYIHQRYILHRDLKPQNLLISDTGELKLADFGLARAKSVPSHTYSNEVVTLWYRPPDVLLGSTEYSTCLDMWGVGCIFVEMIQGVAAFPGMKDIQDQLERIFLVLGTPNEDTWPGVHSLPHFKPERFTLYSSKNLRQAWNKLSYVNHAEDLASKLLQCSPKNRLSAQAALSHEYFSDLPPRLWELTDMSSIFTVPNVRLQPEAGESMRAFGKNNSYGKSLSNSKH", "test": "Selectivity interaction (ActivX KiNativ screen (kinase selectivity in THP-1 cell lysates)) EUB0000639a CDK14", "type": "subcellular", "details": "lysate, at 0.01 µM"}, "[4]": {"target": "Cyclin-dependent kinase 14 (Homo sapiens) (UniProt O94921)", "test": "Selectivity interaction (KinomeScan (DiscoverX)) EUB0000595a CDK14", "details": "at 10 µM"}, "[5]": {"target": "NT-3 growth factor receptor (Homo sapiens, UniProt Q16288)", "sequence (Q16288 32-839 limits assumed)": "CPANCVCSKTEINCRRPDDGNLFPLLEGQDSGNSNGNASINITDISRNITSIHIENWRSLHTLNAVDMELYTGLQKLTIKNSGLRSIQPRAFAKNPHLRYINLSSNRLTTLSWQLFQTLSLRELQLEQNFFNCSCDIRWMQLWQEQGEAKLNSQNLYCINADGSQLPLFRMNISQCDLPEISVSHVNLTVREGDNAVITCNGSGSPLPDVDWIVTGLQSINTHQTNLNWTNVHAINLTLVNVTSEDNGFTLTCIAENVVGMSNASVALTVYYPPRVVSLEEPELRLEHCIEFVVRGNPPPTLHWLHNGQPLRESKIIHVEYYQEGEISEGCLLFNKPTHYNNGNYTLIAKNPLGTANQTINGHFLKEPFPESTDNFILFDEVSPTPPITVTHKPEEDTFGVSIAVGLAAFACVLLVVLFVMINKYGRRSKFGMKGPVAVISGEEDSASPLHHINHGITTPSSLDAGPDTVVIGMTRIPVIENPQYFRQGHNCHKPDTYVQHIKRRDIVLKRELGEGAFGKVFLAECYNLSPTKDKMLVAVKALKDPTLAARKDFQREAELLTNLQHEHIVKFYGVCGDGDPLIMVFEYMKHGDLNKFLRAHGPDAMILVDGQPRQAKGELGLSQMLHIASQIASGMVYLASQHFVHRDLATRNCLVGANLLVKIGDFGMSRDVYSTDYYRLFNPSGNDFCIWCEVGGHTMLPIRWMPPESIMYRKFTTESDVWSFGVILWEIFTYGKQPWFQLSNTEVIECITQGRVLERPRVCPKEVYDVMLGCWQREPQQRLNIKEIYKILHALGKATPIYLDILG", "test": "Selectivity interaction (KinomeScan (DiscoverX)) EUB0000655a NTRK3", "details": "at 10 µM"}, "[6]": {"target": "Death-associated protein kinase 1 (Homo sapiens, UniProt P53355)", "sequence (P53355 whole entry, looked up)": "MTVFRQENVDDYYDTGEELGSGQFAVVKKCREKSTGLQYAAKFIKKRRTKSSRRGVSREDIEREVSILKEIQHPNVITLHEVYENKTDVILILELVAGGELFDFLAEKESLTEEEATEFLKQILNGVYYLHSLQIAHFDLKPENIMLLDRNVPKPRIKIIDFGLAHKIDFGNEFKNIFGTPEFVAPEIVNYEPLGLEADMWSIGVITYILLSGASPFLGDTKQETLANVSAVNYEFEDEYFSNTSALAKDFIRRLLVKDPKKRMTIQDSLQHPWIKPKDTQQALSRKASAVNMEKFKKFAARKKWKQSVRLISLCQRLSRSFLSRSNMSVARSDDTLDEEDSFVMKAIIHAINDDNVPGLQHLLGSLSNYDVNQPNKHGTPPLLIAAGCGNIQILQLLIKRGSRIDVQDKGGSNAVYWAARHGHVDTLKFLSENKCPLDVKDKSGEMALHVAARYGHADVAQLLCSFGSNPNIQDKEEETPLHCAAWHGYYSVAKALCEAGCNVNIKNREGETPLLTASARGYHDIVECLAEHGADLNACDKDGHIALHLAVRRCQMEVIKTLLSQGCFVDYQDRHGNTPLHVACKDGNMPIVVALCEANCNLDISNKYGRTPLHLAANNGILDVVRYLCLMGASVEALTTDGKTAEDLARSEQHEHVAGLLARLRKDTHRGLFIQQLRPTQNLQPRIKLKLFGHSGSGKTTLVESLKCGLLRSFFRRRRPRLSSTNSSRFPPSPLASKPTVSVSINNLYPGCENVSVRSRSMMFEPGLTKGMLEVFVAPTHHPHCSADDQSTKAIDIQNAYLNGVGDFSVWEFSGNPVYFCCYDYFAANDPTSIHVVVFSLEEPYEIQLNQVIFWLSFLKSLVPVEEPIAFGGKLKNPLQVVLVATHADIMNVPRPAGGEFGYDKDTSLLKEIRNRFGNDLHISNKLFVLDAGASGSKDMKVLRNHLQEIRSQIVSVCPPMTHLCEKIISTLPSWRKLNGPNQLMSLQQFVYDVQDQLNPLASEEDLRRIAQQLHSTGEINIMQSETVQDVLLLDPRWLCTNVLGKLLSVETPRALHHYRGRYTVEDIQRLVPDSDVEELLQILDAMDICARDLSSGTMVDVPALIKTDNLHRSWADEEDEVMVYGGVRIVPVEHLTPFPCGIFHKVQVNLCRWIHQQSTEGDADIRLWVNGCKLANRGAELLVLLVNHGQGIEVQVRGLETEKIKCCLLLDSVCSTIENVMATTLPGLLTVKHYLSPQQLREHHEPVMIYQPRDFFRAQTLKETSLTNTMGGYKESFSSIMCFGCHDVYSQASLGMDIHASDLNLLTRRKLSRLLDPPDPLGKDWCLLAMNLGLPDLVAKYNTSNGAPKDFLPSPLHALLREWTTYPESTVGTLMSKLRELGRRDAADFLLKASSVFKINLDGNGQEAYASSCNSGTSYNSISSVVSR", "test": "Selectivity interaction (KinomeScan (DiscoverX)) EUB0001619a DAPK1", "details": "at 1 µM"}, "[7]": {"target": "T3, Mitogen-activated protein kinase kinase kinase 2 (Homo sapiens) (UniProt Q9Y2U5)", "T3 sequence (whole entry)": "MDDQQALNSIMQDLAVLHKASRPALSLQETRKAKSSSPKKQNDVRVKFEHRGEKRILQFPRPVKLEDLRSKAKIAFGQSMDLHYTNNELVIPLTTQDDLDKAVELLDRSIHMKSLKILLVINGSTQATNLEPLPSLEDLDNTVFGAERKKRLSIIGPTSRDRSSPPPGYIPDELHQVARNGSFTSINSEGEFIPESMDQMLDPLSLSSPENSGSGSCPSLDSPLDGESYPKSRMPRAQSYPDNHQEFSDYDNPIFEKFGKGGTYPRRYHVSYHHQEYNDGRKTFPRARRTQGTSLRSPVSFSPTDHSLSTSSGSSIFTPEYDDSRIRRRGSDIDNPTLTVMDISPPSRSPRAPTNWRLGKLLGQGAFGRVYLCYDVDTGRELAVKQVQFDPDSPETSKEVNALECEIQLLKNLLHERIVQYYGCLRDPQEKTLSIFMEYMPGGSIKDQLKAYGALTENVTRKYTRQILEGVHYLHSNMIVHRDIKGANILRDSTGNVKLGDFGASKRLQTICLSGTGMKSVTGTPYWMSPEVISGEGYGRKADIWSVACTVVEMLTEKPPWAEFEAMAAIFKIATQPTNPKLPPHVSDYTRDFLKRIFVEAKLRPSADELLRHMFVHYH", "test": "Selectivity interaction (ActivX KiNativ screen (ex vivo kinase selectivity in human PBMCs)) EUB0001619a MAP3K2", "type": "cell-based", "details": "PBMC, at 1 µM"}, "[8]": {"target": "Serine/threonine-protein kinase 32C (Homo sapiens) (UniProt Q86UX6)", "sequence (Q86UX6 whole entry)": "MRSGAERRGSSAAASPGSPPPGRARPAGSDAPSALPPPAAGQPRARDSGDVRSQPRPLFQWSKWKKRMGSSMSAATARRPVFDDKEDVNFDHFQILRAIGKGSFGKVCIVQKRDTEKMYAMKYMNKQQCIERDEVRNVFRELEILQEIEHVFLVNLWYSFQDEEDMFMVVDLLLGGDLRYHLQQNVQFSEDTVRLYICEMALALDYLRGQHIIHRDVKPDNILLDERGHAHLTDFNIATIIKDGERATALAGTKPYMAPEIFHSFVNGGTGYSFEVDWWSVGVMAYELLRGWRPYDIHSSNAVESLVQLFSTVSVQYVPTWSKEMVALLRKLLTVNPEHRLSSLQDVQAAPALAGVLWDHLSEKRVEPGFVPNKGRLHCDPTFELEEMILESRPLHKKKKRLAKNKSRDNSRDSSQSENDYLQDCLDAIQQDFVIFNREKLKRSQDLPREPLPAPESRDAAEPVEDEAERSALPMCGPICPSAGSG", "test": "Selectivity interaction (KinomeScan (DiscoverX)) EUB0001619a STK32C", "details": "at 1 µM"}, "[9]": {"target": "Serine/threonine-protein kinase B-raf (Homo sapiens) (UniProt P15056)", "sequence (P15056 whole entry)": "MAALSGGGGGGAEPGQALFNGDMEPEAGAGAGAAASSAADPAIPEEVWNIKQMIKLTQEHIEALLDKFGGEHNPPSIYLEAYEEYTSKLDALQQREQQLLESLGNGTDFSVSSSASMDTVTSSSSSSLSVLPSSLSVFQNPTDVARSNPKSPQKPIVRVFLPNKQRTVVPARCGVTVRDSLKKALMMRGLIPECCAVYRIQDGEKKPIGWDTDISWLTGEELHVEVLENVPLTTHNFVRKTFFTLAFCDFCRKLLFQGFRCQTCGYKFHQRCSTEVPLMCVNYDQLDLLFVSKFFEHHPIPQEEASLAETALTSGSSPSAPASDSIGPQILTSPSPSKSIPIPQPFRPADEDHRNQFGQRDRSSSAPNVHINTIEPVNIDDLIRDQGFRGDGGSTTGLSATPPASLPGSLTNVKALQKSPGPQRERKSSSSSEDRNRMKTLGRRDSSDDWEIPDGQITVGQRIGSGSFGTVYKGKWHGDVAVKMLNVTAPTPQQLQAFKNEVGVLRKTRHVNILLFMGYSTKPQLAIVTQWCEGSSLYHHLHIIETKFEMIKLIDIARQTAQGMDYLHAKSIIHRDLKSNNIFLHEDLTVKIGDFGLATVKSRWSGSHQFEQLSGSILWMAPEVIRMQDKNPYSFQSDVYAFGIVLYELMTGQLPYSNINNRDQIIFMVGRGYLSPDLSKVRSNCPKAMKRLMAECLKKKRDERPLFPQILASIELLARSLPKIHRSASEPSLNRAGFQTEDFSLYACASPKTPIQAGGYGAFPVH", "test": "(§1) Selectivity interaction (KinomeScan (DiscoverX)) EUB0000666a BRAF", "details": "at 10 µM"}, "[10]": {"test_system": "Serine/threonine-protein kinase B-raf (Homo sapiens), P15056 [V600E]", "sequence (P15056 whole entry V600E)": "as the sequence (P15056 whole entry) above, with V600E counted along it", "test": "as §1", "details": "at 10 µM"}, "[11]": {"target": "T4, Alpha-1B adrenergic receptor (Homo sapiens) (UniProt P35368)", "T4 sequence (whole entry)": "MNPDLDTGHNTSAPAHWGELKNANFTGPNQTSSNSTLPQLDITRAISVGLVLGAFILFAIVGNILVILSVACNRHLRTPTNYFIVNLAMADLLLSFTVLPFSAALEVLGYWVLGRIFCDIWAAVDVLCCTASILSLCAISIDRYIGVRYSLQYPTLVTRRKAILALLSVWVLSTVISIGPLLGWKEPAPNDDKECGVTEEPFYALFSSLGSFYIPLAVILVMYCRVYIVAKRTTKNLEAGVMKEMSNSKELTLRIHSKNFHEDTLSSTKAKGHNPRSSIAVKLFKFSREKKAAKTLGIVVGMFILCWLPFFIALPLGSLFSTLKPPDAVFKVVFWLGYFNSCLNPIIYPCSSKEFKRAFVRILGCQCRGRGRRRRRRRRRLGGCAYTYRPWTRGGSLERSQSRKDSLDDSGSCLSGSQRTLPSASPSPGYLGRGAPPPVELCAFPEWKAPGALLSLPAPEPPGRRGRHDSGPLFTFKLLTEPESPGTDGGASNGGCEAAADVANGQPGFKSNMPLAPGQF", "test": "Selectivity interaction (Panel of kinases, GPCRs, ion channels and transporters (enzymatic assay)) EUB0000223bCl ADRA1B"}},
  "data": [
    {"smiles": "Cc1cnc(Nc2ccc(F)cc2Cl)nc1-c1c[nH]c(C(=O)N[C@H](CO)c2cccc(Cl)c2)c1", "values": [
      {"measurement": "% of inhibition", "setting": "[1]", "result": 0, "unit": "%"}
    ]},
    {"smiles": "COc1cc(Nc2nc(C)cc(-c3cnn4nc(OC)ccc34)n2)cc(C(F)(F)F)c1", "values": [
      {"measurement": "% of control", "setting": "[2]", "result": 100, "unit": "%"}
    ]},
    {"smiles": "CC[C@@H]1[C@H](F)C(=O)N[C@@H]1COc1nccc2cc(C(N)=O)c(OC)cc12", "note": "[ZIMLOVISERTIB]", "values": [
      {"measurement": "% of inhibition", "setting": "[3]", "result": -16.8, "unit": "%"}
    ]},
    {"smiles": "COCC(=O)NC/C=C/c1ccc2ncnc(Nc3ccc(Oc4ccc(C)nc4)c(C)c3)c2c1", "note": "[CP-724714]", "values": [
      {"measurement": "% of control", "setting": "[4]", "result": 100, "unit": "%"}
    ]},
    {"smiles": "CN(C)CCOc1ccc(-c2nc(-c3ccncc3)c(-c3ccc4c(c3)CC/C4=N\\O)[nH]2)cc1", "values": [
      {"measurement": "% of control", "setting": "[5]", "result": 45, "unit": "%"}
    ]},
    {"smiles": "N#Cc1cccc(-c2c[nH]c3ncnc(N4CCOCC4)c23)c1", "values": [
      {"measurement": "% of control", "setting": "[6]", "result": 89, "unit": "%"},
      {"measurement": "% of inhibition", "setting": "[7]", "result": 22, "unit": "%"},
      {"measurement": "% of control", "setting": "[8]", "result": 100, "unit": "%"}
    ]},
    {"smiles": "O=C(NOC[C@H](O)CO)c1ccc(F)c(F)c1Nc1ccc(I)cc1F", "values": [
      {"measurement": "% of control", "setting": "[9]", "result": 98, "unit": "%"},
      {"measurement": "% of control", "setting": "[10]", "result": 100, "unit": "%"}
    ]},
    {"smiles": "COc1cc(C(=O)N2CC[C@@H](O)[C@@H](N)C2)cc2nc(-c3cc4ccccc4n3CC3CC3)n(C)c12", "values": [
      {"measurement": "pXC50", "setting": "[11]", "result": 4.9, "unit": "M"}
    ]}
  ]
}
